{
  "source": "patent US20240239752A1",
  "about": "“BICYCLIC HETEROAROMATIC INHIBITORS OF KLK5” (BioCryst Pharmaceuticals, Inc., priority 2021, published 2024)",
  "data": [
    {"molecular_target": "T1, recombinant human KLK5 (Homo sapiens, UniProt Q9Y337)", "T1 construct": "purchased Novoprotein or R&D Systems C415 or 1108-SE", "T1 sequence (Q9Y337 23-293)": "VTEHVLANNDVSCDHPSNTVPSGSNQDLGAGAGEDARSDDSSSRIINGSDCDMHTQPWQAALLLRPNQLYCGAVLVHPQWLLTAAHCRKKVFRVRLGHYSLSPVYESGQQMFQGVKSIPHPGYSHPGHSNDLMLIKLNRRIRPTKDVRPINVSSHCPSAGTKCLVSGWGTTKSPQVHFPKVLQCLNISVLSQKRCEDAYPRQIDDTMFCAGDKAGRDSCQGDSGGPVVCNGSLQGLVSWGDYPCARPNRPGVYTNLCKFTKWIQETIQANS", "experiment": "Kallikrein (KLK) 5 enzymatic assay (Boc-VPR-AMC fluorogenic substrate)", "format": "biochemical", "details": "recombinant human KLK5 0.1 μg/well, Boc-VPR-AMC 100 μM, pH 7.5, room temperature, 1% DMSO; tested a minimum of three times", "outline": "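Fluorogenic rate assay at pH 7.5 (0.1 M NaH2PO4, 1% DMSO, room temperature), run at least three times per compound. Compound was premixed with 0.1 μg/well recombinant human KLK5 before adding 100 μM Boc-VPR-AMC; AMC release was read at ex 380/em 460 nm, and IC50 derived from inhibition of rate vs DMSO control.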", "units": {"IC50": "µM"}, "values": [
      {"smiles": "COc1ccc(CC(=O)O)c(OC2c3cc(-c4ccc5ccnc(N)c5c4)ccc3CC2(C)C)c1", "note": "(stereo not drawn) [Compound 441b, 2-(2-((6-(1-aminoisoquinolin-7-yl)-2,2-dimethyl-2,3-dihydro-1H-inden-1-yl)oxy)-4-methoxyphenyl)acetic acid]", "IC50": "1 to 10"},
      {"smiles": "Nc1nccc2c(-c3ccc4c(c3)C(Oc3cc(F)ccc3CC(=O)O)CC43CCCC3)cccc12", "note": "(stereo not drawn) [Compound 442c, 2-(2-((5′-(1-aminoisoquinolin-5-yl)-2′,3′-dihydrospiro[cyclopentane-1,1′-inden]-3′-yl)oxy)-4-fluorophenyl)acetic acid]", "IC50": "< 1"},
      {"smiles": "Nc1nccc2ccc(-c3ccc4c(c3)C(Oc3cc(F)ccc3CC(=O)O)CC43CCCC3)cc12", "note": "(stereo not drawn) [Compound 443b, 2-(2-((5′-(1-aminoisoquinolin-7-yl)-2′,3′-dihydrospiro[cyclopentane-1,1′-inden]-3′-yl)oxy)-4-fluorophenyl)acetic acid]", "IC50": "< 1"},
      {"smiles": "COCCC1(CCOC)CC(Oc2ccccc2CC(=O)O)c2cc(-c3ccc4ccnc(N)c4c3)ccc21", "note": "(stereo not drawn) [Compound 446f, 2-(2-((6-(1-aminoisoquinolin-7-yl)-3,3-bis(2-methoxyethyl)-2,3-dihydro-1H-inden-1-yl)oxy)phenyl)acetic acid]", "IC50": "< 1"},
      {"smiles": "COCCC1(CCOC)CC(Oc2ccccc2CC(=O)O)c2cc(-c3cccc4c(N)nccc34)ccc21", "note": "(stereo not drawn) [Compound 447b, 2-(2-((6-(1-aminoisoquinolin-5-yl)-3,3-bis(2-methoxyethyl)-2,3-dihydro-1H-inden-1-yl)oxy)phenyl)acetic acid]", "IC50": "< 1"},
      {"smiles": "Cc1cccc(OC2CC3(CCN(S(C)(=O)=O)CC3)c3ccc(-c4ccc5ccnc(N)c5c4)cc32)c1CC(=O)O", "note": "(stereo not drawn) [Compound 448c, 2-(2-((5-(1-aminoisoquinolin-7-yl)-1′-(methylsulfonyl)-2,3-dihydrospiro[indene-1,4′-piperidin]-3-yl)oxy)-6-methylphenyl)acetic acid]", "IC50": "< 1"},
      {"smiles": "Cc1cccc(OC2CC3(CCN(S(C)(=O)=O)CC3)c3ccc(-c4cccc5c(N)nccc45)cc32)c1CC(=O)O", "note": "(stereo not drawn) [Compound 449b, 2-(2-((5-(1-aminoisoquinolin-5-yl)-1′-(methylsulfonyl)-2,3-dihydrospiro[indene-1,4′-piperidin]-3-yl)oxy)-6-methylphenyl)acetic acid]", "IC50": "< 1"},
      {"smiles": "Cc1cccc(OC2CC3(CCN(C(=O)OCC(C)C)CC3)c3ccc(-c4ccc5ccnc(N)c5c4)cc32)c1CC(=O)O", "note": "(stereo not drawn) [Compound 450c, 2-(2-((5-(1-aminoisoquinolin-7-yl)-1′-(isobutoxycarbonyl)-2,3-dihydrospiro[indene-1,4′-piperidin]-3-yl)oxy)-6-methylphenyl)acetic acid]", "IC50": "< 1"},
      {"smiles": "Cc1cccc(OC2CC3(CCN(C(=O)OCC(C)C)CC3)c3ccc(-c4cccc5c(N)nccc45)cc32)c1CC(=O)O", "note": "(stereo not drawn) [Compound 451b, 2-(2-((5-(1-aminoisoquinolin-5-yl)-1′-(isobutoxycarbonyl)-2,3-dihydrospiro[indene-1,4′-piperidin]-3-yl)oxy)-6-methylphenyl)acetic acid]", "IC50": "< 1"},
      {"smiles": "COC(=O)N1CCC2(CC1)CC(Oc1cc(OC)ccc1CC(=O)O)c1cc(-c3ccc4ccnc(N)c4c3)ccc12", "note": "(stereo not drawn) [Compound 452c, 2-(2-((5-(1-aminoisoquinolin-7-yl)-1′-(methoxycarbonyl)-2,3-dihydrospiro[indene-1,4′-piperidin]-3-yl)oxy)-4-methoxyphenyl)acetic acid]", "IC50": "< 1"},
      {"smiles": "COC(=O)N1CCC2(CC1)CC(Oc1cc(OC)ccc1CC(=O)O)c1cc(-c3cccc4c(N)nccc34)ccc12", "note": "(stereo not drawn) [Compound 453b, 2-(2-((5-(1-aminoisoquinolin-5-yl)-1′-(methoxycarbonyl)-2,3-dihydrospiro[indene-1,4′-piperidin]-3-yl)oxy)-4-methoxyphenyl)acetic acid]", "IC50": "< 1"},
      {"smiles": "COC(=O)N1CCC2(CC1)CC(Oc1c(C#N)cccc1CC(=O)O)c1cc(-c3ccc4ccnc(N)c4c3)ccc12", "note": "(stereo not drawn) [Compound 454c, 2-(2-((5-(1-aminoisoquinolin-7-yl)-1′-(methoxycarbonyl)-2,3-dihydrospiro[indene-1,4′-piperidin]-3-yl)oxy)-3-cyanophenyl)acetic acid]", "IC50": "1 to 10"},
      {"smiles": "COC(=O)N1CCC2(CC1)CC(Oc1c(C#N)cccc1CC(=O)O)c1cc(-c3cccc4c(N)nccc34)ccc12", "note": "(stereo not drawn) [Compound 455b, 2-(2-((5-(1-aminoisoquinolin-5-yl)-1′-(methoxycarbonyl)-2,3-dihydrospiro[indene-1,4′-piperidin]-3-yl)oxy)-3-cyanophenyl)acetic acid]", "IC50": "1 to 10"},
      {"smiles": "CC(C)N1CCN(C2CC(Oc3ccccc3CC(=O)O)c3cc(-c4cccc5c(N)nccc45)ccc32)CC1", "note": "(stereo not drawn) [Compound 456g, 2-(2-((6-(1-aminoisoquinolin-5-yl)-3-(4-isopropylpiperazin-1-yl)-2,3-dihydro-1H-inden-1-yl)oxy)phenyl)acetic acid]", "IC50": "< 1"},
      {"smiles": "CC(C)N1CCN(C2CC(Oc3ccccc3CC(=O)O)c3cc(-c4ccc5ccnc(N)c5c4)ccc32)CC1", "note": "(stereo not drawn) [Compound 457b]", "IC50": "< 1"},
      {"smiles": "Nc1nccc2c(-c3ccc4c(c3)c(COc3ccccc3CC(=O)O)cn4C3CCOC3)cccc12", "note": "(stereo not drawn) [Compound 458f, 2-(2-((5-(1-aminoisoquinolin-5-yl)-1-(tetrahydrofuran-3-yl)-1H-indol-3-yl)methoxy)phenyl)acetic acid]", "IC50": "< 1"},
      {"smiles": "Nc1nccc2c(-c3ccc4c(c3)[C@H](Oc3ccccc3CC(=O)O)C[C@H]4N3CCCCC3)cccc12", "note": "[Compound 459f, (+)-trans 2-(2-(((1R,3R)-6-(1-aminoisoquinolin-5-yl)-3-(piperidin-1-yl)-2,3-dihydro-1H-inden-1-yl)oxy)phenyl)acetic acid]", "IC50": "< 1"},
      {"smiles": "Nc1nccc2c(-c3ccc4c(c3)[C@@H](Oc3ccccc3CC(=O)O)C[C@@H]4N3CCCCC3)cccc12", "note": "[Compound 459g, (−)-trans 2-(2-(((1S,3S)-6-(1-aminoisoquinolin-5-yl)-3-(piperidin-1-yl)-2,3-dihydro-1H-inden-1-yl)oxy)phenyl)acetic acid]", "IC50": "1 to 10"}
    ]}
  ]
}
